Results as given in publication PMC4826176, “Identification of H7 as a novel peroxiredoxin I inhibitor to induce differentiation of leukemia cells” (Oncotarget, 2015).

How the values were obtained:
[1] = biological target: T1, Prdx I (recombinant human peroxiredoxin I) (Homo sapiens, UniProt Q06830); experiment: peroxidase activity, Trx-Trx reductase-NADPH-coupled spectrophotometric assay; format: biochemical
T1 construct: gene PRDX1; full-length, N-terminal His6 tag (pET28a), expressed in E. coli BL21, purified
T1 sequence (Q06830 2-199): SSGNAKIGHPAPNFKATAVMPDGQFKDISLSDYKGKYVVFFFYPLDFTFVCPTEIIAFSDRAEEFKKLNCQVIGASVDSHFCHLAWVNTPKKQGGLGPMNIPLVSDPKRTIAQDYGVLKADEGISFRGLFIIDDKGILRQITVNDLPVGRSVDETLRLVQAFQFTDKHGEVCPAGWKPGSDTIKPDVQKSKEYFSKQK

[2] = biological target: T2, Prdx I (endogenous, NB4 cell lysate) (Homo sapiens, UniProt Q06830); experiment: cellular thermal shift assay (CETSA) in lysate, Western blot; format: biochemical; details: NB4 lysate in PBS, heated 3 min at different temperatures (75.9°C for dose dependence)
T2 construct: gene PRDX1; endogenous untagged protein in NB4 cell lysate, detected by Western blot
T2 sequence (Q06830 2-199): T1 sequence (Q06830 2-199)

[3] = biological target: T1, Prdx I (recombinant human peroxiredoxin I); experiment: surface plasmon resonance (Biacore T200), single-cycle kinetics; format: binding; details: read-out: dissociation constant
Description: surface plasmon resonance (Biacore T200), single-cycle kinetics on Prdx I (recombinant human peroxiredoxin I) | H7 rapidly associated and disassociated from the immobilized Prdx I at a dissociation constant of […]

CCc1ccc(S(=O)(=O)N=C2C=CC(=O)c3ccccc32)cc1 [H7]
IC50 [1]: 7.85 µM | cellular thermal shift assay (CETSA) in lysate, Western blot [2]: addition of H7 but not DMSO into the cell lysates increased the stability of Prdx I | Kd [3]: 1.57 µM
